From the supplement of paper PMC10307832

Experiments:
Experiment in all cases: relative viability (nuclei count vs DMSO), 5 days (fraction); higher = more cells survive
Apatinib + Navitoclax = compound: N#CC1(c2ccc(NC(=O)c3cccnc3NCc3ccncc3)cc2)CCCC1 [Apatinib] + CC1(C)CCC(c2ccc(Cl)cc2)=C(CN2CCN(c3ccc(C(=O)NS(=O)(=O)c4ccc(N[C@H](CCN5CCOCC5)CSc5ccccc5)c(S(=O)(=O)C(F)(F)F)c4)cc3)CC2)C1 [Navitoclax] (partner 0.5 µM)
In short: (§1)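 The day after seeding in 1536-well plates, lung cancer cell lines were treated by pin tool with a single drug, or with a fixed anchor-drug dose together with five library-drug doses (not always all listed) in √10 steps. After 5 days, a combined fix-and-stain solution (final 0.05% Triton X-100, 1% formaldehyde, 1 ug/ml Hoechst) was added. Nuclei counted on 4× images gave relative viability as treated counts over vehicle counts, reported as the median of duplicate plates.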

Metformin + Crizotinib = compound: CN(C)C(=N)NC(=N)N [Metformin] + C[C@@H](Oc1cc(-c2cnn(C3CCNCC3)c2)cnc1N)c1c(Cl)ccc(F)c1Cl [Crizotinib] (partner 1 µM)
In short: as §1

Apatinib + Luminespib = compound: N#CC1(c2ccc(NC(=O)c3cccnc3NCc3ccncc3)cc2)CCCC1 [Apatinib] + CCNC(=O)c1noc(-c2cc(C(C)C)c(O)cc2O)c1-c1ccc(CN2CCOCC2)cc1 [Luminespib] (partner 0.01 µM)
In short: as §1

Apatinib + Dasatinib = compound: N#CC1(c2ccc(NC(=O)c3cccnc3NCc3ccncc3)cc2)CCCC1 [Apatinib] + Cc1nc(Nc2ncc(C(=O)Nc3c(C)cccc3Cl)s2)cc(N2CCN(CCO)CC2)n1 [Dasatinib] (partner 0.075 µM)
In short: as §1

Cell Line	relative viability (Apatinib + Navitoclax; first compound 0.08 µM)	relative viability (Apatinib + Navitoclax; first compound 0.253 µM)	relative viability (Apatinib + Navitoclax; first compound 0.8 µM)	relative viability (Apatinib + Navitoclax; first compound 2.53 µM)	relative viability (Apatinib + Navitoclax; first compound 8 µM)	relative viability (Metformin + Crizotinib; first compound 10 µM)	relative viability (Metformin + Crizotinib; first compound 31.62 µM)	relative viability (Metformin + Crizotinib; first compound 100 µM)	relative viability (Metformin + Crizotinib; first compound 316.23 µM)	relative viability (Metformin + Crizotinib; first compound 1000 µM)	relative viability (Apatinib + Luminespib; first compound 0.08 µM)	relative viability (Apatinib + Luminespib; first compound 0.253 µM)	relative viability (Apatinib + Luminespib; first compound 0.8 µM)	relative viability (Apatinib + Luminespib; first compound 2.53 µM)	relative viability (Apatinib + Luminespib; first compound 8 µM)	relative viability (Apatinib + Dasatinib; first compound 0.08 µM)	relative viability (Apatinib + Dasatinib; first compound 0.253 µM)	relative viability (Apatinib + Dasatinib; first compound 0.8 µM)	relative viability (Apatinib + Dasatinib; first compound 2.53 µM)	relative viability (Apatinib + Dasatinib; first compound 8 µM)
NCI-H647	1.3	1.29	1.04	0.975	0.779	0.982	1.02	0.955	0.939	0.942	0.235	0.144	0.267	0.136	0.23	0.506	0.253	0.175	0.169	0.152
NCI-H661							0.848	0.843	0.885	0.8	0.973	0.873	0.898	0.95	0.865	1.12	0.957	0.803	0.702	0.708
HCC-366	1.1	1.08	1.04	0.961	1.01	0.608	0.502	0.532	0.398	0.709						0.661	0.559	0.565	0.647	0.601
HOP-62	1.04	1.01	1.01	0.859	0.878	0.917	0.995	1.11	0.765	0.917	1.01	0.838	0.77	0.714	0.692	0.732	0.699	0.689	0.571	0.589
A549	1.18	1.34	1.22	1.19	1.02	0.782	0.531	0.653	0.723	0.777										
HCC-827	1.07	1.06	0.956	0.998	0.781		0.87	0.903	0.849	0.888	0.765	0.704	0.391	0.777	0.566	0.287	0.326	0.273	0.236	0.231
NCI-H1395	1.1	1.13	1.09	1.02	0.957						0.713	0.686	0.784	0.604	0.527	0.412	0.399	0.367	0.349	0.378
SK-MES-1	1.25	1.17	1.24	1.14	0.965	0.884	0.893	0.925	0.784	0.932	0.732	0.796	0.701	0.727	0.795	0.368	0.323	0.38	0.348	0.307
NCI-H2023	0.988	1.01	0.954	0.925	0.895		0.767	0.706		0.512	0.981	0.917	0.708	0.507	0.649	0.566	0.639	0.536	0.392	0.358
NCI-H1299	1.06	1.05	1.03	1.05	0.937	0.98	0.962	0.975	0.972	1.04										
LCLC-97TM1	0.485	0.401	0.369	0.397	0.18	0.401	0.4	0.457	0.382	0.543	0.761	0.833	0.863	0.605	0.297	0.824	0.763	0.767	0.711	0.504
NCI-H1993	1.13	0.822	0.813	0.688	0.772	1.12	0.849	1.22	1.06	1.31	0.885	0.906	0.886	0.757	0.673	0.63	0.663	0.558	0.538	0.503
PC-3 [JPC-3]	0.785	0.764	0.746	0.816	0.737	0.861	0.893	0.951	0.876	0.901	0.712	0.701	0.711	0.622	0.485	0.988	0.943	0.88	0.83	0.879
NCI-H441	1.07	0.5	0.728	0.519	0.31	0.337		0.638	0.457	0.655	0.261	0.296	0.253	0.406	0.308	0.646	0.486	0.511	0.566	0.449
NCI-H322M	1.28	1.11	1.25	1.32	1.12	0.884	1.01	0.958	0.854	0.78	0.871	0.845	0.9	1.01	1.07	0.253	0.229	0.245	0.256	0.247
NCI-H1651	1.02	1.22	0.97	0.928	0.867	0.933	0.957	0.939	0.964	0.97	0.981	1.12	0.855	0.579	0.652	0.386	0.492	0.387	0.251	0.365
EKVX	0.882	0.946	0.98	0.888	0.826	0.657	0.896	0.958	0.716	0.895	0.841	0.857	0.851	0.821	0.816	0.603	0.621	0.478	0.361	0.325
CAL-12T	1.26	1.23	1.1	1.17	1.03		0.64	0.552	0.611	0.521	0.565	0.315	0.261	0.882	0.661	0.523	0.602	0.38	0.262	0.234
NCI-H358						0.551	0.448	0.587	0.311	0.507	0.246	0.368	0.684	0.382	0.236	0.188	0.151	0.139	0.206	0.186
PC-14	1.04	0.968	0.967	0.986	0.937	0.889	0.912	0.896	0.769	0.894	0.121	0.15		0.167	0.144	0.284	0.238	0.203	0.208	0.178

Cell Line	relative viability (Apatinib + Navitoclax; first compound 0.08 µM)	relative viability (Apatinib + Navitoclax; first compound 0.253 µM)	relative viability (Apatinib + Navitoclax; first compound 0.8 µM)	relative viability (Apatinib + Navitoclax; first compound 2.53 µM)	relative viability (Apatinib + Navitoclax; first compound 8 µM)	relative viability (Metformin + Crizotinib; first compound 10 µM)	relative viability (Metformin + Crizotinib; first compound 31.62 µM)	relative viability (Metformin + Crizotinib; first compound 100 µM)	relative viability (Metformin + Crizotinib; first compound 316.23 µM)	relative viability (Metformin + Crizotinib; first compound 1000 µM)	relative viability (Apatinib + Luminespib; first compound 0.08 µM)	relative viability (Apatinib + Luminespib; first compound 0.253 µM)	relative viability (Apatinib + Luminespib; first compound 0.8 µM)	relative viability (Apatinib + Luminespib; first compound 2.53 µM)	relative viability (Apatinib + Luminespib; first compound 8 µM)	relative viability (Apatinib + Dasatinib; first compound 0.08 µM)	relative viability (Apatinib + Dasatinib; first compound 0.253 µM)	relative viability (Apatinib + Dasatinib; first compound 0.8 µM)	relative viability (Apatinib + Dasatinib; first compound 2.53 µM)	relative viability (Apatinib + Dasatinib; first compound 8 µM)
NCI-H650						0.709	0.669	0.908	0.709	0.862	0.774	0.831	0.872	0.645	0.524	0.37	0.435	0.483	0.444	0.403
NCI-H2405	1.03	1.07	1.01	0.832	0.803	0.815	0.93	0.97	0.89	0.854	0.675	0.695	0.653	0.621	0.491	0.215	0.207	0.202	0.159	0.192
NCI-H2228	1.02	0.988	0.738	0.708	0.751	0.48	0.515		0.385	0.581	0.126	0.122	0.129	0.13	0.126	0.538	0.533	0.518	0.387	0.295
H3255	0.512	0.62	0.34	0.52	0.607	0.754	0.934	0.809	0.84	0.384	0.791	0.782	0.811	0.644	0.829	0.356	0.326	0.344	0.255	0.366
EBC-1	0.5	0.55	0.46	0.27	0.237	0.205	0.154	0.205	0.173	0.222										
NCI-H520	1.21	1.14	0.982	1.02	0.857	0.804	0.75	0.803	0.752	0.606	0.218	0.245	0.223	0.216	0.207	0.228	0.205	0.176	0.203	0.203
SK-LU-1	0.965	1.35	0.705	0.638	0.631	0.787	0.772	0.884	0.817	0.824	0.196	0.201	0.202	0.182	0.186	0.182	0.207	0.184	0.167	0.175
NCI-H522											1.14	1.08	1.27	1.07	0.955	0.872	0.882	0.884	0.892	0.782
LCLC-103H						1.13	1.19	1.11	1.1	1.09	0.969	0.949	0.864	0.957	0.735	0.436	0.402	0.458	0.43	0.344
HCC-78	0.884	0.631	0.821	0.58	0.648	0.422	0.487	0.498	0.491	0.529						0.332	0.289	0.361	0.333	0.302
Calu-6	0.791	0.919	0.751	0.648	0.626	0.637	0.755	0.71	0.691	0.714										
SW 900											0.171	0.178	0.175	0.185	0.177	0.699	0.429	0.545	0.476	0.491
NCI-H1703	0.996	0.731	0.357	0.188	0.205	0.989	0.934	0.66	0.679	0.886										
NCI-H2342											0.677	0.552	0.81	0.702	0.726	0.267	0.295	0.307	0.28	0.283
NCI-H1793	0.343	0.712	0.441	0.29	0.283						0.185	0.183	0.157	0.172	0.193	0.427	0.345	0.337	0.37	0.3
NCI-H1623											0.402	0.429	0.465	0.461	0.476	0.438	0.598	0.493	0.545	0.595
ABC-1							1.3	0.869	0.447	0.29		0.907	0.646	0.554	0.553		0.631	0.492	0.509	0.484
NCI-H1563						0.855	0.889	0.865	0.793	0.827	0.534	0.536	0.533	0.548	0.543	0.444	0.41	0.406	0.475	0.451
IA-LM	0.947	0.709	0.633	0.352	0.208	0.76	0.944		0.926	0.973										
HCC-44	0.961	1.05	0.979	0.946	0.892	0.824	0.788	0.785	0.749	0.776	0.98	1.21	1.03	1.02	0.751					
